Measurements taken from patent publication US20240309003A1, “HETEROCYCLIC COMPOUNDS AS TRIGGERING RECEPTOR EXPRESSED ON MYELOID CELLS 2 AGONISTS AND METHODS OF USE” (Vigil Neuroscience, Inc., priority 2021, published 2024).

Target: T1, human TREM2 (Homo sapiens, UniProt Q9NZC2)
T1 construct: expressed in transfected cells; host or cells: HEK293T
Test: TREM2 agonist potency by cellular phosphorylation of Syk (AlphaLisa) in HEK293T-hTREM2 cells
Type: cell-based
How it was run: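 Agonist EC50 from a variable-slope four-parameter fit of % activation, based on AlphaLisa phospho-Syk levels in lysates. Cells: HEK293T-hTREM2 (with DAP12), treated 45 min at room temperature with compound in assay buffer.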

[1] = HEK293 cells expressing human TREM2 and DAP12, Table D-2
[2] = HEK293 cells expressing human TREM2 and DAP12, Table D

T1 sequence (Q9NZC2 19-230): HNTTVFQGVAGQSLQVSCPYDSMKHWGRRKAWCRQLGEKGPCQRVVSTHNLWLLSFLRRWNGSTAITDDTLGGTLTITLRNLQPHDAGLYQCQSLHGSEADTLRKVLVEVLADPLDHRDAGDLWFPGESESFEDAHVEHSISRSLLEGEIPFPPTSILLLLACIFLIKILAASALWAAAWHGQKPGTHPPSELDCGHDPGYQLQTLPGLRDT
T1 sequence (O43914 22-113 partner): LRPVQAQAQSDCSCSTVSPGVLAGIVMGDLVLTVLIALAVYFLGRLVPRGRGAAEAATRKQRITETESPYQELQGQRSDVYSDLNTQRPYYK

EC50 [1] [nM] | EC50 [2] [nM] | SMILES
< 50 | – | Cc1nc2nc(N3C[C@@H](c4cnn(C(F)F)c4)O[C@@H](C4CC4)C3)nc(-c3ccc(F)cc3F)c2nc1C (stereo in doubt) [Example I-1701, (2S,6R)-2-cyclopropyl-6-[1-(difluoromethyl)pyrazol-4-yl]-4-[4-(2,4-difluorophenyl)-6,7-dimethyl-pteridin-2-yl]morpholine]
50 to 500 | – | Cc1nc2nc(N3CCO[C@H](c4cnn5c4CCC5)C3)nc(-c3ccc(F)cc3F)c2nc1C [Example I-1529, (2R)-4-[4-(2,4-difluorophenyl)-6,7-dimethyl-pteridin-2-yl]-2-(5,6-dihydro-4H-pyrrolo[1,2-b]pyrazol-3-yl)morpholine]
– | 50 to 500 | [2H]C([2H])([2H])n1cc([C@H]2C[C@@H](c3nc(-c4ccc(F)cc4F)c4nc(C)c(C)nc4n3)CCO2)cn1 [Example 156]
– | 500 to 3000 | Cc1nc2nc([C@@H]3CCO[C@H](c4cnn(C5CC5)c4)C3)nc(-c3cc(F)c(F)cc3F)c2nc1C [Example 152, 2-((2S,4R)-2-(1-cyclopropyl-1H-pyrazol-4-yl)tetrahydro-2H-pyran-4-yl)-6,7-dimethyl-4-(2,4,5-trifluorophenyl)pteridine]
– | 50 to 500 | [2H]C([2H])([2H])c1ccc(-c2nc([C@H]3CCO[C@@H](c4cnn(C([2H])([2H])[2H])c4)C3)nc3nc(C([2H])([2H])[2H])c(C([2H])([2H])[2H])nc23)cc1 [Example 175, 6,7-bis(methyl-d3)-2-((2R,4S)-2-(1-(methyl-d3)-1H-pyrazol-4-yl)tetrahydro-2H-pyran-4-yl)-4-(4-(methyl-d3)phenyl)pteridine]
50 to 500 | – | Cc1nc2nc([C@H]3CCO[C@@H](c4cnn(C5CC5)c4)C3)nc(-c3ccc(F)cc3F)c2nc1C1CCCCC1 [Example I-1744, 6-cyclohexyl-2-((2R,4S)-2-(1-cyclopropyl-1H-pyrazol-4-yl)tetrahydro-2H-pyran-4-yl)-4-(2,4-difluorophenyl)-7-methylpteridine]
– | 500 to 3000 | Cc1nc2nc([C@@H]3CCO[C@H](c4cnn(CCF)c4)C3)nc(-c3ccc(F)cc3F)c2nc1C [Example 149, 4-(2,4-difluorophenyl)-2-((2S,4R)-2-(1-(2-fluoroethyl)-1H-pyrazol-4-yl)tetrahydro-2H-pyran-4-yl)-6,7-dimethylpteridine]
– | < 50 | Cc1nc2nc(N3CCOC(c4cc[nH]c(=O)c4)C3)nc(C34CC(C(F)(F)F)(C3)C4)c2nc1C (stereo not shown) [Example 197, 4-(4-(6,7-dimethyl-4-(3-(trifluoromethyl)bicyclo[1.1.1]pentan-1-yl)pteridin-2-yl)morpholin-2-yl)pyridin-2(1H)-one]
< 50 | – | Cc1nc2nc([C@H]3CCO[C@@H](c4cnn(C5CC5)c4)C3)nc(-c3ccc(Cl)cc3F)c2nc1C(F)F [Example I-1099, 4-(4-chloro-2-fluoro-phenyl)-2-[(2R,4S)-2-(1-cyclopropylpyrazol-4-yl)tetrahydropyran-4-yl]-6-(difluoromethyl)-7-methyl-pteridine]
– | 50 to 500 | COc1cccc([C@H]2C[C@@H](c3nc(C45CC(C(F)(F)F)(C4)C5)c4nc(C)c(C)nc4n3)CCO2)n1 [Example 146, 2-[ (2R,4S)-2-(6-methoxy-2-pyridyl)tetrahydropyran-4-yl] - 6,7-dimethyl-4-[3-(trifluoromethyl)-1-bicyclo[1.1.1]pentanyl]pteridine]
– | 50 to 500 | COc1ncccc1[C@H]1C[C@@H](c2nc(-c3ccc(F)cc3F)c3nc(C)c(C)nc3n2)CCO1 [Example 161, 4-(2,4-difluorophenyl)-2-((2R,4S)-2-(2-methoxypyridin-3-yl)tetrahydro-2H-pyran-4-yl)-6,7-dimethylpteridine]
500 to 3000 | – | Cc1nc2cc([C@H]3CCO[C@@H](c4cnn(C5CC5)c4)C3)nc(-c3ccc(F)cc3F)c2nc1CC#N [Example I-1451, 2-(7-((2R,4S)-2-(1-cyclopropyl-1H-pyrazol-4-yl)tetrahydro-2H-pyran-4-yl)-5-(2,4-difluorophenyl)-2-methylpyrido[3,4-b]pyrazin-3-yl)acetonitrile]
50 to 500 | – | CCCc1ccc(-c2nc([C@H]3CCO[C@@H](c4cnn(C5CC5)c4)C3)nc3nc(C)c(C)nc23)c(F)c1 [Example I-1197]
– | < 50 | Cc1cnc2c(C34CC(C(F)(F)F)(C3)C4)nc(N3C[C@@H](C)O[C@@H](c4cnn(C5CC5)c4)C3)nc2n1 [Example 126, (2S,6R)-2-(1-cyclopropyl-1H-pyrazol-4-yl)-6-methyl-4-(7-methyl-4-(3-(trifluoromethyl)bicyclo[1.1.1]pentan-1-yl)pteridin-2-yl)morpholine]
– | < 50 | [2H][C@]1(c2cnn(C3CC3)c2)C[C@@H](c2nc(-c3ccc(F)cc3F)c3nc(C)c(C)nc3n2)CCO1 [Example 182, 2-((2R,4S)-2-(1-cyclopropyl-1H-pyrazol-4-yl)tetrahydro-2H-pyran-4-yl-2-d)-4-(2,4-difluorophenyl)-6,7-dimethylpteridine]
– | 50 to 500 | Cc1nc2nc(C3CCOC(c4cc(C5CC5)n[nH]4)C3)nc(-c3ccc(F)cc3F)c2nc1C (stereo not shown) [Example 166, 2-(2-(3-cyclopropyl-1H-pyrazol-5-yl)tetrahydro-2H-pyran-4-yl)-4-(2,4-difluorophenyl)-6,7-dimethylpteridine]
– | 50 to 500 | Cc1nc2nc(N3CCO[C@H](c4cc[nH]c(=O)c4)C3)nc(C34CC(C(F)(F)F)(C3)C4)c2nc1C [Example 199, (R)-4-(4-(6,7-dimethyl-4-(3-(trifluoromethyl)bicyclo[1.1.1]pentan-1-yl)pteridin-2-yl)morpholin-2-yl)pyridin-2(1H)-one]
– | < 50 | Cc1nc2nc([C@H]3C[C@@H](C)O[C@@H](c4cnn(C5CC5)c4)C3)nc(-c3cc(F)c(F)cc3F)c2nc1C [Example 157, 2-((2R,4S,6R)-2-(1-cyclopropyl-1H-pyrazol-4-yl)-6-methyltetrahydro-2H-pyran-4-yl)-6,7-dimethyl-4-(2,4,5-trifluorophenyl)pteridine]
– | 500 to 3000 | COc1ncccc1[C@@H]1C[C@H](c2nc(C34CC(C(F)(F)F)(C3)C4)c3nc(C)c(C)nc3n2)CCO1 [Example 143, 2-((2S,4R)-2-(2-methoxypyridin-3-yl)tetrahydro-2H-pyran-4-yl)-6,7-dimethyl-4-(3-(trifluoromethyl)bicyclo[1.1.1]pentan-1-yl)pteridine]
– | 50 to 500 | Cc1nc2nc([C@@H]3CCO[C@@H](c4cnn(C5CC5)c4)C3)cc(-c3ccc(Cl)cc3F)c2nc1C [Example 223, 8-(4-chloro-2-fluorophenyl)-6-((2R,4R)-2-(1-cyclopropyl-1H-pyrazol-4-yl)tetrahydro-2H-pyran-4-yl)-2,3-dimethylpyrido[2,3-b]pyrazine]
500 to 3000 | – | Cc1cc2c(-c3ccc(F)cc3F)nc(N3C[C@@H](C)O[C@@H](c4cn(C)cn4)C3)nc2nc1C [Example I-1260, (2R,6R)-4-[4-(2,4-difluorophenyl)-6,7-dimethyl-pyrido[2,3-d]pyrimidin-2-yl]-2-methyl-6-(1-methylimidazol-4-yl)morpholine; formic acid]
– | < 50 | COc1ccc([C@H]2C[C@@H](c3nc(C45CC(C(F)(F)F)(C4)C5)c4nc(C)c(C)nc4n3)CCO2)cn1 [Example 141, 2-((2R,4S)-2-(6-methoxypyridin-3-yl)tetrahydro-2H-pyran-4-yl)-6,7-dimethyl-4-(3-(trifluoromethyl)bicyclo[1.1.1]pentan-1-yl)pteridine]
